Laboratory results taken from ChEMBL document CHEMBL1201862, “PubChem BioAssay data set” (2004).
Calls of active or inactive are those of the source.

How the values were obtained:
[1] = molecular target: Peroxisome proliferator-activated receptor gamma/Nuclear receptor coactivator 1 (Homo sapiens, UniProt P37231); assay: (§1) TR-FRET dose response biochemical High Throughput Screening assay for agonists of the steroid receptor coactivator 1 (SRC-1) recruitment by the peroxisome proliferator-activated receptor gamma (PPAR gamma): non-selective agonists. [Related pubchem assays (depositor defined):AID1300, AID1808, AID504735, AID631]; assay type: protein assay
[2] = molecular target: Peroxisome proliferator-activated receptor gamma/Nuclear receptor coactivator 3 (Homo sapiens, UniProt P37231); assay: as §1, with “3 (SRC-3)” for “1 (SRC-1)”, “assays: 1301 (Confirmation screen.), 1048 (Primary screen.)]” for “assays (depositor defined):AID1300, AID1808, AID504735, AID631]”; assay type: functional
[3] = molecular target: Peroxisome proliferator-activated receptor gamma/Nuclear receptor coactivator 2 (Homo sapiens, UniProt P37231); assay: TR-FRET dose response biochemical High Throughput Screening assay for agonists of the steroid receptor coactivator 2 (SRC-2) recruitment by the peroxisome proliferator-activated receptor gamma (PPAR gamma): non-selective agonists. [Related pubchem assays: 1297, 1032 ]; assay type: functional
[4] = molecular target: T1, Apoptotic protease-activating factor 1 (Homo sapiens, UniProt O14727); assay type: functional
T1 sequence (O14727 whole entry): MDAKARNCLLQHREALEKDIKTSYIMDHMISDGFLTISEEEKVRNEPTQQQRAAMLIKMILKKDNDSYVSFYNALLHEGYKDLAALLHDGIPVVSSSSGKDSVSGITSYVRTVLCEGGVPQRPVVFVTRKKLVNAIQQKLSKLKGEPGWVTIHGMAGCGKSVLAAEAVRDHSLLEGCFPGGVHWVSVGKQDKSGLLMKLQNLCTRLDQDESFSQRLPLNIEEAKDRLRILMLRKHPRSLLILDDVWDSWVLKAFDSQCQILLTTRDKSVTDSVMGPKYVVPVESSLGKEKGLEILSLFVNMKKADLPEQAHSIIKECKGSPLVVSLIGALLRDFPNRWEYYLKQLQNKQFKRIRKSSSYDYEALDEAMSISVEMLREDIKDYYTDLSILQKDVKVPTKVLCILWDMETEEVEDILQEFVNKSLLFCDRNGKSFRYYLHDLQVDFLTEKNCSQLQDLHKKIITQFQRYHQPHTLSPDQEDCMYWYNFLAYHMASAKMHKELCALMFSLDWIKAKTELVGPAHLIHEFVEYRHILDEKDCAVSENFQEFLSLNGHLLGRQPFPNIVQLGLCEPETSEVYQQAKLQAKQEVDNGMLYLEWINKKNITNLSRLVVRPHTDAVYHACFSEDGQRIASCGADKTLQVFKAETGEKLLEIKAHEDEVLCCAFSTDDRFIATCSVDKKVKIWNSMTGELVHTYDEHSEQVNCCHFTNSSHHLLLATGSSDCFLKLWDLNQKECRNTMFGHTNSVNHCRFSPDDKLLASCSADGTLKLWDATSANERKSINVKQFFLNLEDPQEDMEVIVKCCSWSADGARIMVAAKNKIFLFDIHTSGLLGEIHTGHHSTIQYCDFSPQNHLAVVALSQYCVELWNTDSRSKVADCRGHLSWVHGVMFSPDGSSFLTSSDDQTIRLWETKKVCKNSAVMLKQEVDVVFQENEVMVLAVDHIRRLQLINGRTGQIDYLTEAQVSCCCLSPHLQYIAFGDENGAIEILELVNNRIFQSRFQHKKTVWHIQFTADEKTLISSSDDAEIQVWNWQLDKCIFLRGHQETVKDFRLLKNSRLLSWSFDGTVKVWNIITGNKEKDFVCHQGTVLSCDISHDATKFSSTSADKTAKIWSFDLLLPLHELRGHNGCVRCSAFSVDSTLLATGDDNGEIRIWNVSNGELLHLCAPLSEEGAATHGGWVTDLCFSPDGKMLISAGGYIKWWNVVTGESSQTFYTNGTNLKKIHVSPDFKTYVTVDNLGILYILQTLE

[5] = reduction of Shn3 3'UTR-driven luciferase in osteoblasts – cell-based, Clone20 osteoblasts, firefly luciferase, cherry-picked, dose response (AID 624132); assay type: functional;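 further: firefly luciferase luminescence from reporter carrying the Shn3 3'UTR in osteoblasts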
[6] = non-specific 3'UTR reporter inhibition in Clone20-Shn3RL – cell-based, Renilla luciferase, cherry-picked, counter-screen for Shn3 inhibitor project, dose response (AID 624133); assay type: functional
Cytochrome P450 3A4 = Cytochrome P450 3A4 (Homo sapiens, UniProt P08684);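 further: CYP3A4 tested as one member of a cytochrome P450 panel screen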
[7] = molecular target: Voltage-dependent T-type calcium channel subunit alpha-1H (Homo sapiens, UniProt O95180); assay type: functional;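 further: channel activity triggered by adding a high calcium stimulation buffer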
Escherichia coli [8] = assay: microbe, parasite or virus in culture
Escherichia coli [9] = assay: microbe, parasite or virus in culture; remark: listed apart in the source
Coagulation factor XII = molecular target: T2, Coagulation factor XII (Homo sapiens, UniProt P00748); assay: activated coagulation factor XII inhibitor potency, concentration-effect curve, cell-free (AID 716); assay type: functional
T2 sequence (P00748 whole entry): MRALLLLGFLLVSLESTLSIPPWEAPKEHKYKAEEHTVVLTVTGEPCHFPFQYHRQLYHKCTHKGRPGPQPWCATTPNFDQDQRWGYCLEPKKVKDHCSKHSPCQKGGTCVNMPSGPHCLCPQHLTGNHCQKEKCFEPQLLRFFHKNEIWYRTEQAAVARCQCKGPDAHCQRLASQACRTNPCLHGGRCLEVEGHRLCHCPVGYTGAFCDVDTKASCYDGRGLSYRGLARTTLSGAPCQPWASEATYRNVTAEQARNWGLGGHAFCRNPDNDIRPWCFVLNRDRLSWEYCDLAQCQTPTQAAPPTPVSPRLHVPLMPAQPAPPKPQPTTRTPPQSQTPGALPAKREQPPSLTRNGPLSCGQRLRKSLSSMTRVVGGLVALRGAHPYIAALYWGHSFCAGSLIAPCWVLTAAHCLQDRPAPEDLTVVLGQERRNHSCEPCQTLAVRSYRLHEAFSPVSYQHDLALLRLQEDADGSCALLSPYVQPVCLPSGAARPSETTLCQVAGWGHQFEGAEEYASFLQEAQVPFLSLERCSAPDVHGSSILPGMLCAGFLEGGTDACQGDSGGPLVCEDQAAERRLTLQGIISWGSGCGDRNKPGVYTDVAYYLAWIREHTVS

[10] = molecular target: Glyceraldehyde-3-phosphate dehydrogenase (Homo sapiens, UniProt P04406)
[11] = molecular target: Alkaline phosphatase, placental type (Homo sapiens, UniProt P05187); assay: human placental alkaline phosphatase inhibition – biochemical, luminescence, confirmation (AID 1512); assay type: functional
[12] = molecular target: T3, Alkaline phosphatase, tissue-nonspecific isozyme (Homo sapiens, UniProt P05186); assay: potency against alkaline phosphatase TNAP – biochemical, luminescent, dose response, SAR follow-up (AID 1056)
T3 sequence (P05186 whole entry): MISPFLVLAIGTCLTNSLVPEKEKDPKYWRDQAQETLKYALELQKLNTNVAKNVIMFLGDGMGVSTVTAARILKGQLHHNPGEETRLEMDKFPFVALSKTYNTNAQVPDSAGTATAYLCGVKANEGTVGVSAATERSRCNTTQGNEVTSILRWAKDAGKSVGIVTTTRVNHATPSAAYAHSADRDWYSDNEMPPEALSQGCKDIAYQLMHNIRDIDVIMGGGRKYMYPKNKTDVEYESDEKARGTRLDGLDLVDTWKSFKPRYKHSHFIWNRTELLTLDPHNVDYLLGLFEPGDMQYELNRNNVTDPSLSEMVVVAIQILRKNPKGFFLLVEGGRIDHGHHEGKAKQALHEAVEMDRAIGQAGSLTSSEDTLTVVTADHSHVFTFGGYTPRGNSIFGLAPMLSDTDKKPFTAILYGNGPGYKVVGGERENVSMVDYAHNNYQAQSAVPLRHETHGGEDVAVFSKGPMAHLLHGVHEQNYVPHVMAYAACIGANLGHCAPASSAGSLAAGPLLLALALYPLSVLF

Cytochrome P450 2D6 = Cytochrome P450 2D6 (Homo sapiens, UniProt P10635);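 further: CYP2D6 member of a cytochrome P450 panel assay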
Bcl-2-related protein A1 = molecular target: T4, Bcl-2-related protein A1 (Mus musculus, UniProt Q07440); assay type: functional;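 further: confirmatory dose–response counterscreen on Bfl-1, used to check hits from a UBC13 polyubiquitin inhibitor campaign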
T4 sequence (Q07440 whole entry): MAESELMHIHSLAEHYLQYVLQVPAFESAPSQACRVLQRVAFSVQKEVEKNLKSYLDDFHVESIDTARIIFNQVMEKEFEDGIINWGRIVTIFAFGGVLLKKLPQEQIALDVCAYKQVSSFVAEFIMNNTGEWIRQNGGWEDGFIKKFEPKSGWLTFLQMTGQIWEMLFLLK

[13] = molecular target: T5, Ubiquitin-conjugating enzyme E2 N (Homo sapiens, UniProt P61088); assay type: functional
T5 sequence (P61088 whole entry): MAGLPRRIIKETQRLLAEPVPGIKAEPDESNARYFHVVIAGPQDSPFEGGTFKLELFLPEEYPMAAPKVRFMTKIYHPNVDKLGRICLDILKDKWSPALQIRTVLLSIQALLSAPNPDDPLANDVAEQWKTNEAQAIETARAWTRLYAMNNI

[14] = molecular target: T5, Ubiquitin-conjugating enzyme E2 N; assay type: functional; remark: listed apart in the source
[15] = NIH-3T3 fibroblast cytotoxicity, dose response, cytotoxicity control, cell-based, fluorescence, Alamar Blue, secondary assay (AID 2327); assay type: functional;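 further: NIH-3T3 mouse fibroblasts cultured with fluconazole at 8 µg/mL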
[16] = fluconazole-exposed Candida albicans growth modulators – fluorescence, retest, confirmation (AID 2467); assay type: functional, cell-based
[17] = Trypanosoma cruzi growth suppression in host cells – NIH3T3 host cells, beta-gal luminescence, confirmation (AID 2044); assay type: functional, cell-based;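 further: intracellular parasites grown in NIH/3T3 mouse fibroblasts as host cells; luminescent beta-galactosidase reporter signal from transgenic T. cruzi replicating inside host cells; inhibitors lower the luminescence signal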
[18] = viability of PTEN-deleted HCT116 cells – cell-based, HCT116 PTEN knockout, dose response (AID 1047); assay type: functional;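 further: HCT116 colon tumor cells with PTEN knocked out; cells exposed to compound for 60 hours before readout; potency for loss of cell viability measured by luminescence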
[19] = NIH3T3 cell viability loss – ATP luminescence, mouse fibroblasts, counter-screen, dose response (AID 2010); assay type: functional, cell-based;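 further: cells exposed to compound for about 90 hours before reading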
[20] = viability of HCT116 lacking mutant beta-catenin – cell-based, human colon tumor, dose response (AID 1045); assay type: functional;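 further: HCT116 colon tumor cells with beta catenin knocked out; cells exposed to compound for 60 hours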
Beta-galactosidase = Beta-galactosidase (Escherichia coli, UniProt Q8VNN2); assay: detection-enzyme interference by beta-gal modulators – biochemical, E. coli enzyme, set 3, artefact control for CCR6 antagonist project, dose response (AID 504712); assay type: functional
HEK293 [21] = assay: inhibition of NOD1-driven NF-kB reporter – cell-based, luminescence, uHTS, primary screen (AID 1578); assay type: functional; details: Homo sapiens
HEK293 [22] = assay: cells; assay type: functional, cell-based; details: Homo sapiens
HEK293 [23] = assay: cells; assay type: functional, cell-based; details: Homo sapiens; remark: listed apart in the source
[24] = molecular target: Nucleotide-binding oligomerization domain-containing protein 2 (Homo sapiens, UniProt Q9HC29); assay: inhibition of NOD2-driven NF-kB reporter – cell-based, luminescence, uHTS, HEK293 (AID 1566); assay type: functional
HEK293 [25] = assay: NOD2 signaling inhibitors in MDP-stimulated cells, cell-based, uHTS, luminescence (AID 2001); assay type: functional; details: Homo sapiens
HEK293 [26] = assay: cells; assay type: functional, cell-based; details: Homo sapiens; remark: listed apart in the source

Sequence of Alkaline phosphatase, placental type (P05187 whole entry): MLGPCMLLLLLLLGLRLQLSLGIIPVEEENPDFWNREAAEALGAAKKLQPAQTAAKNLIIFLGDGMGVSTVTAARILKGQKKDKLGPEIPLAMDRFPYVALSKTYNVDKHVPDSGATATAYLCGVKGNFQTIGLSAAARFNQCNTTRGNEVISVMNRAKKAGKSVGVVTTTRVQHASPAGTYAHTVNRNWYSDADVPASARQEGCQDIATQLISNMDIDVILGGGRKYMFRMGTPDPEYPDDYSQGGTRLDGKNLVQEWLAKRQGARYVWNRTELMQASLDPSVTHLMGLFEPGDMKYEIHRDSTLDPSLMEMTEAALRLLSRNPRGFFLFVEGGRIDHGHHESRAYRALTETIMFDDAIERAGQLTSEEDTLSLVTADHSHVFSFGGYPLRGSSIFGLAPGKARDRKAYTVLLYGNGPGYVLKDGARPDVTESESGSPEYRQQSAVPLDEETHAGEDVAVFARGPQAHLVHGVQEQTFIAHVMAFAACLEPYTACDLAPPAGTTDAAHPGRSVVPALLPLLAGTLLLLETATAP
Sequence of Peroxisome proliferator-activated receptor gamma/Nuclear receptor coactivator 3 (P37231 whole entry): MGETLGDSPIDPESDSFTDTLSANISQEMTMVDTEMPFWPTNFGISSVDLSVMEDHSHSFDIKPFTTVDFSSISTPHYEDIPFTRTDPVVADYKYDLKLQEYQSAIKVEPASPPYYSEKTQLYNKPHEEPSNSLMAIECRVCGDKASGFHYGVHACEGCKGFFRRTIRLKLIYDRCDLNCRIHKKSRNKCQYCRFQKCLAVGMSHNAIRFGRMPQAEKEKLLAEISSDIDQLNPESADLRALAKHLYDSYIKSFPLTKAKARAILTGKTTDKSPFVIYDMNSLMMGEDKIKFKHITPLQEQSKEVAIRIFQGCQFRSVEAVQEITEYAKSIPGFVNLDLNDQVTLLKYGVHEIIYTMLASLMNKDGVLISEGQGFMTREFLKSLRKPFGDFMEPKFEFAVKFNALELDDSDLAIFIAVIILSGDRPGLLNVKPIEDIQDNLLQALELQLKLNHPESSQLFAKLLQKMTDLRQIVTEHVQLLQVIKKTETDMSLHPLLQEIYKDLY
Sequence of Peroxisome proliferator-activated receptor gamma/Nuclear receptor coactivator 3 (Q9Y6Q9 whole entry, further chain): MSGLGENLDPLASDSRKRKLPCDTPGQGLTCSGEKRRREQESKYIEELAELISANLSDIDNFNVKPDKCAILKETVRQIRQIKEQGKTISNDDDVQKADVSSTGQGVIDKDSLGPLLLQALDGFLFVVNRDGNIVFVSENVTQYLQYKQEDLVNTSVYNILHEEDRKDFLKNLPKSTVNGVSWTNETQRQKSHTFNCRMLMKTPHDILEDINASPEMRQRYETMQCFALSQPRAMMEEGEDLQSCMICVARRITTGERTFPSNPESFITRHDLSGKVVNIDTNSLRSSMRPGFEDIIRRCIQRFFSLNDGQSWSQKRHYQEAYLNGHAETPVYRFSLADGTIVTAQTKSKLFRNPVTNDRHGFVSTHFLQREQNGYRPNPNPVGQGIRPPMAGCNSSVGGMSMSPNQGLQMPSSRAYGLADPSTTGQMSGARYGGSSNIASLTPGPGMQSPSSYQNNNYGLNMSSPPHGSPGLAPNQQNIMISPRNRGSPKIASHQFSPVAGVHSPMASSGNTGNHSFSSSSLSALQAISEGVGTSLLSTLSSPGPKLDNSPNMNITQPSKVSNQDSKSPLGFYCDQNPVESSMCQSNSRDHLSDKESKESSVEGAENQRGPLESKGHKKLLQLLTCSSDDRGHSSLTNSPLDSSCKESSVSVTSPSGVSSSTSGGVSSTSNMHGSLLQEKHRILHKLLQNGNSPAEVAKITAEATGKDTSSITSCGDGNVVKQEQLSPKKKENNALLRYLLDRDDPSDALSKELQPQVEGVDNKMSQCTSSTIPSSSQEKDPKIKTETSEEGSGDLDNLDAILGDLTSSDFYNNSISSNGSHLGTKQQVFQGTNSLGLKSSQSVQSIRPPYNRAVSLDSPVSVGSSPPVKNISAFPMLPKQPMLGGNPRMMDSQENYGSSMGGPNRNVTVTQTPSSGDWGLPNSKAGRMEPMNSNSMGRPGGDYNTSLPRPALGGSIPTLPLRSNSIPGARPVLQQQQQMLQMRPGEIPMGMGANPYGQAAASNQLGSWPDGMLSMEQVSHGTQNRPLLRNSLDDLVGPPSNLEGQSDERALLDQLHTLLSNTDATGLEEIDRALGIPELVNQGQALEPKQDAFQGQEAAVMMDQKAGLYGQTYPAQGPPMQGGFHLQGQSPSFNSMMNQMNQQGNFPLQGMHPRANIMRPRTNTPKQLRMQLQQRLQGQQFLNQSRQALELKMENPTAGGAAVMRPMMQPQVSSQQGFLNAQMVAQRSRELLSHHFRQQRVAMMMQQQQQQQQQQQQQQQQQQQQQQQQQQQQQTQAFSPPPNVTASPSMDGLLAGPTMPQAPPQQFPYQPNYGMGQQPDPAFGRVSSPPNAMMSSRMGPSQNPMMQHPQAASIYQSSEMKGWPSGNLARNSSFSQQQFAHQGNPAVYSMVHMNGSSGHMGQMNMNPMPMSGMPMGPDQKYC
Sequence of Peroxisome proliferator-activated receptor gamma/Nuclear receptor coactivator 1 (P37231 whole entry): as the sequence (P37231 whole entry) above
Sequence of Peroxisome proliferator-activated receptor gamma/Nuclear receptor coactivator 1 (Q15788 whole entry, further chain): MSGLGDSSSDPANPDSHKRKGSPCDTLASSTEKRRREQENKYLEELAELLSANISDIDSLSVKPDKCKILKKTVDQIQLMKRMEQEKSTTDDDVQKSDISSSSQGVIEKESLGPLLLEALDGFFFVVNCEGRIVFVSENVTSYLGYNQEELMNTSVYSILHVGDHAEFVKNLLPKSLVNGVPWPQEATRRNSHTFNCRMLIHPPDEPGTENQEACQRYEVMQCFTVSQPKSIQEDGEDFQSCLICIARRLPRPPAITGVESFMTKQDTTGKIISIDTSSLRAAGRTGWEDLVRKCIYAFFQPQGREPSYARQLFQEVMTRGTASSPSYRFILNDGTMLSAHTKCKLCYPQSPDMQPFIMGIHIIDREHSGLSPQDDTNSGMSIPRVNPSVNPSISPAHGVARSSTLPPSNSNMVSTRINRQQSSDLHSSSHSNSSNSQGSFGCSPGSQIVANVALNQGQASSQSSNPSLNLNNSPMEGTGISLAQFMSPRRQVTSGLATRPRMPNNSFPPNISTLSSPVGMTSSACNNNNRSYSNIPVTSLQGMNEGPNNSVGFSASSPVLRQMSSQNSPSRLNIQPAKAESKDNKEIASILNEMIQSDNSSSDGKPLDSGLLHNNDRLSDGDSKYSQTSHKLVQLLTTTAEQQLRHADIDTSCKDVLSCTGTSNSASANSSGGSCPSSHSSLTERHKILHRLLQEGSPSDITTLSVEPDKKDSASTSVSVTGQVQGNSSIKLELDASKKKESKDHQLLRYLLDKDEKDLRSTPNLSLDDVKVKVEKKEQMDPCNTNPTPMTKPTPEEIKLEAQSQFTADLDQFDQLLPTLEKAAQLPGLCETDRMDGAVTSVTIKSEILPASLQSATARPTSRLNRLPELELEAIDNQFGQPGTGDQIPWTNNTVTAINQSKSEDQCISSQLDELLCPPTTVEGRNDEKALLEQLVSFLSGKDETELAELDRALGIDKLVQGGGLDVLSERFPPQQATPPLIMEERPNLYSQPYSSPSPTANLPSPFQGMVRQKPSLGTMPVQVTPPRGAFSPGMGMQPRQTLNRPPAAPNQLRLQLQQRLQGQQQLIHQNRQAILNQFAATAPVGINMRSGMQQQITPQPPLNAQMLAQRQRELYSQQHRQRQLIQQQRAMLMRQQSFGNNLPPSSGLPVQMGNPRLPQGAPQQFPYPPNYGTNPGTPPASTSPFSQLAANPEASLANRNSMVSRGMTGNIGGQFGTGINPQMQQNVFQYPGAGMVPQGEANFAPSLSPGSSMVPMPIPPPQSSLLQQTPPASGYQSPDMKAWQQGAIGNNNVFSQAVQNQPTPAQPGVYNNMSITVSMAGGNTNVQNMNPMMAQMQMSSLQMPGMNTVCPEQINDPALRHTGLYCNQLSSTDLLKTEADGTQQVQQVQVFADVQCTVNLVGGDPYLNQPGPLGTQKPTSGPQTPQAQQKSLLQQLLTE
Sequence of Cytochrome P450 3A4 (P08684 whole entry): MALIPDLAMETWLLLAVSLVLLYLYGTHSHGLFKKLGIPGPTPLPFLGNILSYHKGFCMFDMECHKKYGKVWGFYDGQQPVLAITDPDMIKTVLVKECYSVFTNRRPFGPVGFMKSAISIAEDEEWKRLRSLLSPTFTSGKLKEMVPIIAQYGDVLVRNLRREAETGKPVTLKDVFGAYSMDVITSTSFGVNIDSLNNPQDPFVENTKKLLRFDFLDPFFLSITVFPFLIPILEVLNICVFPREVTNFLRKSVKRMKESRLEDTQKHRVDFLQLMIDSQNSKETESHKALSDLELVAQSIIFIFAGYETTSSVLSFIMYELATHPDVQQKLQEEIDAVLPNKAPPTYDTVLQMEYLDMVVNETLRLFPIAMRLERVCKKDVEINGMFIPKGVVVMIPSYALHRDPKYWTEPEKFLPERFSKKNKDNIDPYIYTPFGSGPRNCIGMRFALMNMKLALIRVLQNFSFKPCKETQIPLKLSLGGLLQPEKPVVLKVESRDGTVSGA

CS(=O)(=O)c1nc(-c2ccc(Br)cc2)cc(-c2ccccc2)c1C#N
EC50 [1]: 7.5 µM (active)
EC50 [2]: > 79.4 µM (not active)
EC50 [3]: 8.09 µM (active)
IC50 [4]: 2.07 µM (active)
AC50 [5]: 4.72 µM (active)
AC50 [6]: 6.77 µM (active)

CCCCOC(=S)NC(=O)c1sc2ccccc2c1Cl
AC50 (Cytochrome P450 3A4): inconclusive

CC1CCN(S(=O)(=O)c2cccc(C(=O)NCc3cccs3)c2)CC1
EC50 [7]: 2.96 µM (active)
AC50 (Escherichia coli [8]): 40.9 µM (active)
AC50 (Escherichia coli [9]): 106 µM (active)

CCOC(=O)c1sc2ncnc(N3CCN(C(=O)OCC)CC3)c2c1C
IC50 (Coagulation factor XII): > 50 µM (inactive)

C=CCn1c(COc2ccc(CC)cc2)nnc1SCC(=O)N(C)C1CCS(=O)(=O)C1 (stereo not given)
IC50 (Coagulation factor XII): > 50 µM (inactive)

OC[C@@H]1O[C@@H](n2cnc3cncnc32)[C@@H](O)[C@H]1O
AC50 (Cytochrome P450 3A4): inconclusive

COc1cc2oc(=O)c(Br)c(C)c2c(OC)c1OC
EC50 [1]: 13 µM (inactive)
EC50 [2]: > 79.4 µM (not active)
EC50 [3]: 10 µM (not active)

CCN(CC)S(=O)(=O)c1ccc(C(=O)NCC(c2cccs2)N2CCOCC2)cc1 (stereo not given)
IC50 (Coagulation factor XII): > 50 µM (inactive)

Nc1nc(Cc2cccc(Br)c2)n(-c2ccccc2)n1
IC50 [10]: > 100 µM (not active)
IC50 [11]: > 100 µM (inactive)
IC50 [12]: > 100 µM (inactive)

C=CCNS(=O)(=O)c1cccc2cc(C(=O)O)c(O)cc12
AC50 (Cytochrome P450 2D6): 22.4 µM (inconclusive)
AC50 (Cytochrome P450 3A4): inconclusive

COc1ccc(-c2nnc3oc(O)c(CCO)c(C)c2-3)cc1
IC50 [10]: > 100 µM (not active)
IC50 [11]: > 100 µM (inactive)
IC50 [12]: > 100 µM (inactive)

Cc1cc(C)c(C#N)c(SCC(=O)c2ccc(O)c(O)c2)n1
IC50 [11]: 1.56 µM (active)
IC50 [12]: 6.71 µM (active)

CCCN1CCN(C(=O)C2CCN(c3ncnc4c3nc3n4CCCCC3)CC2)CC1
IC50 (Bcl-2-related protein A1): > 20 µM (inactive)
IC50 [13]: 14.2 µM (active)
IC50 [14]: 6.38 µM (active)

N=C(N)N/N=C/c1ccc(OCc2ccc(Cl)cc2)cc1
EC50 [15]: > 150 µM (inactive)
EC50 [16]: > 38 µM (not active)
EC50 [17]: 1.93 µM (active)
EC50 [18]: 3.74 µM (active)
EC50 [19]: > 60 µM (inconclusive)
EC50 [20]: 3.25 µM (active)
IC50 (Bcl-2-related protein A1): > 20 µM (inactive)
IC50 [13]: 13 µM (active)
IC50 (Beta-galactosidase): > 66.6 µM (inactive)
IC50 [14]: 12.4 µM (active)

CC(/C=C/c1ccccc1)=N/NC(=O)c1cccc(Br)c1
EC50 (HEK293 [21]): 3.65 µM (active)
IC50 (HEK293 [22]): > 20 µM (inactive)
IC50 (HEK293 [23]): > 20 µM (inactive)
EC50 [24]: > 20 µM (inactive)
IC50 (HEK293 [25]): 2.7 µM (active)
IC50 (HEK293 [26]): > 20 µM (inactive)
IC50 (Beta-galactosidase): > 66.6 µM (inactive)

Cc1ccccc1-c1ccc(/C=N/c2c(C)n(C)n(-c3ccccc3)c2=O)o1
EC50 [1]: > 79.4 µM (inactive)
EC50 [2]: > 79.4 µM (not active)
EC50 [3]: 47.6 µM (not active)
